Source: patent US5283254A, “2-(imidazol-1-yl)-2-benzylethyldiene-aminoxyalkanoic acid derivatives” (Farmitalia Carlo Erba S.r.l., priority 1991, dated 1994)
pIC50: −log10 of the molar value.

Experiments:
TxA2 synthase [1] = settings: known compound; cited from earlier work
TxA2 Synthase [2] = biological target: T1, TxA2 Synthase (Rattus norvegicus, UniProt P49430); assay: Inhibition of TxA2 synthase activity: TxB2 production in rat whole blood during clotting (serum, RIA), in vitro; type: cell-based; settings: for inhibitory activity on TxA2 synthesis (in words): rat
T1 construct: TxB2 generated in whole blood during clotting; endogenous in cells; host or cells: rat whole blood (blood cells, mainly platelets), clotted 1 h at 37 °C
T1 sequence (P49430 1-533): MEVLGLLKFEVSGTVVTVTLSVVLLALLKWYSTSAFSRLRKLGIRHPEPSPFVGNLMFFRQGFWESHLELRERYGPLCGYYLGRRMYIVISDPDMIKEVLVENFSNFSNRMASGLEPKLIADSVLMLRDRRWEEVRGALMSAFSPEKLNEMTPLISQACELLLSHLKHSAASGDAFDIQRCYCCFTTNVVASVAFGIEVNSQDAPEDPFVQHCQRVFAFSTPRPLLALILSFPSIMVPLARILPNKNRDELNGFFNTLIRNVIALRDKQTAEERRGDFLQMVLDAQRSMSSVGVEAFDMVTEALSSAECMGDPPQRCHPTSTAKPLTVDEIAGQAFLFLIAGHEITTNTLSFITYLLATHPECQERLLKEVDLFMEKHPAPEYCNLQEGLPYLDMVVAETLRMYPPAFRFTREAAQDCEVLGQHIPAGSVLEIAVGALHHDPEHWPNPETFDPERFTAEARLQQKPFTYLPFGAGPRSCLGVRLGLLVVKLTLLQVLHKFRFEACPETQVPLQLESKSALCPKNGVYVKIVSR
Description: The compounds of formula (I) were for example tested for their ability to inhibit TxA2 Synthase activity (as reflected by TxB2 generated in whole blood during clotting or in isolated glomeruli) in vitro in the rat.
The in vitro experiments were carried out as follows:
The effect of the compounds on TxA2 synthesis was evaluated in serum.
Blood was withdrawn from the abdominal aorta of the animals under light ether anesthesia.
Samples were then allowed to clot for 1 h at 37° C., centrifuged at 3000 rpm for 10 min, serum collected and stored at -20° C. until assayed. TxB2 levels were determined by RIA according to previously described procedures [Patrono et al.--Thromb. Res. 17, 3/4, 317, 1980] using highly specific antibody.

TxA2 receptor = biological target: T2, TxA2 receptor (Homo sapiens, UniProt P21731); assay: [3H]-SQ 29,548 binding displacement in washed human platelets (TxA2 antagonism)
T2 construct: endogenous in cells; host or cells: washed human platelets from healthy volunteers
T2 sequence (P21731 1-343): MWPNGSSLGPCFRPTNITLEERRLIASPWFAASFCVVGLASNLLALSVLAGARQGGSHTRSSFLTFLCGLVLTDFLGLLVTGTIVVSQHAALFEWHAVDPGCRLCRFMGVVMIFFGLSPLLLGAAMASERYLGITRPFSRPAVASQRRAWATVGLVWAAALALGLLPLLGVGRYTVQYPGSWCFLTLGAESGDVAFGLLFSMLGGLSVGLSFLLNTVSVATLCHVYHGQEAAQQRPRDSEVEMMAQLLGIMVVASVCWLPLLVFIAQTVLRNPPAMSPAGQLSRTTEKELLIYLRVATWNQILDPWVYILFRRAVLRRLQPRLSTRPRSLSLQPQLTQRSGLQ
Description: Platelet rich plasma (PRP), obtained by centrifugation of the blood at 200×g for 20 min, is washed twice (1000×g for 10 min). […] For displacement experiments various concentrations (10^-9 -10^-4 M) of competing ligands were added and incubated for 30 min at 25° C.
The binding data were analysed by computerized non-linear curve fitting using the Ligand program and expressed as IC50.

Row | SMILES | TxA2 synthase inhibitory activity (in words) (TxA2 synthase [1]) | inhibitory activity on TxA2 synthesis (in words) (TxA2 Synthase [2]) | pIC50 (TxA2 Synthase [2]; rat whole blood, n = 8 replicates, limits for p = 0.95 printed on following line, clotting 1 h at 37° C.) | inhibitory activity on TxA2 synthesis (in words) (TxA2 Synthase [2]; listed as FCE 27109) | affinity for the receptor / TxA2 antagonism (in words) (TxA2 receptor) | pIC50 (TxA2 receptor; 5 nM [3H]-SQ 29,548, 30 min at 25° C., pH 7.4)
1 | O=C(O)COc1ccc(CCNS(=O)(=O)c2ccccc2)cc1 [BM 13177] | devoid of TxA2 synthase inhibitory activity |  |  |  |  | 
2 | O=C(O)CCCCO/N=C(\c1ccccc1)C(Cc1ccc(F)cc1)n1ccnc1 (racemic) [FCE 27317, (±)-(E)-5-[1-phenyl-2-(imidazol-1-yl)-2-(4-fluorobenzyl)ethylidene]aminoxypentanoic acid] |  | marked inhibitory activity on TxA2 synthesis significantly more potent than that of reference compounds Dazoxiben and ASA | 6.41 | active as TxA2 synthase inhibitor | good affinity for the receptor better than that showed by the known compound Sulotroban (BM 13177) | 7.41
